# Laboratory results reported in PubChem BioAssay (NCI).
#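 Compound exposure: 48 hours, 5 concentrations, 96-well plates. GI50 marks 50% less growth. Definition used: TGI = concentration required for complete inhibition of growth.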
# Experiments:
# Experiment in all cases: DTP human tumour cell line panel, 48 h
# HL-60(TB) leukemia = test system: HL-60(TB) leukemia
# HCT-116 colon = test system: HCT-116 colon
# OVCAR-8 ovarian = test system: OVCAR-8 ovarian
# SF-539 CNS = test system: SF-539 CNS
# RXF 393 renal = test system: RXF 393 renal
# SF-268 CNS = test system: SF-268 CNS
# HS 578T breast = test system: HS 578T breast
# MDA-MB-435 = test system: MDA-MB-435
# T-47D breast = test system: T-47D breast
# MDA-MB-231 breast = test system: MDA-MB-231 breast
# LOX IMVI melanoma = test system: LOX IMVI melanoma
# UO-31 renal = test system: UO-31 renal
# 786-0 renal = test system: 786-0 renal
# UACC-62 melanoma = test system: UACC-62 melanoma
# SW-620 colon = test system: SW-620 colon
# K-562 leukemia = test system: K-562 leukemia
# SK-MEL-2 melanoma = test system: SK-MEL-2 melanoma
# HCC-2998 colon = test system: HCC-2998 colon
# TK-10 renal = test system: TK-10 renal
# HCT-15 colon = test system: HCT-15 colon
# SK-OV-3 ovarian = test system: SK-OV-3 ovarian
# A498 renal = test system: A498 renal
# NCI-H23 lung = test system: NCI-H23 lung
# SK-MEL-5 melanoma = test system: SK-MEL-5 melanoma
# MCF7 breast = test system: MCF7 breast
# ACHN renal = test system: ACHN renal
# RPMI-8226 leukemia = test system: RPMI-8226 leukemia
# OVCAR-5 ovarian = test system: OVCAR-5 ovarian
# HT29 colon = test system: HT29 colon
# PC-3 prostate = test system: PC-3 prostate
# DU-145 prostate = test system: DU-145 prostate
# OVCAR-4 ovarian = test system: OVCAR-4 ovarian
# SK-MEL-28 melanoma = test system: SK-MEL-28 melanoma
# M14 melanoma = test system: M14 melanoma
# U251 CNS = test system: U251 CNS
# SN12C renal = test system: SN12C renal
# MOLT-4 leukemia = test system: MOLT-4 leukemia
# KM12 colon = test system: KM12 colon
# SNB-19 CNS = test system: SNB-19 CNS
# UACC-257 melanoma = test system: UACC-257 melanoma
# COLO 205 colon = test system: COLO 205 colon
# A549 NSCLC = test system: A549 NSCLC
# IGROV1 ovarian = test system: IGROV1 ovarian
# HOP-62 NSCLC = test system: HOP-62 NSCLC
# CAKI-1 renal = test system: CAKI-1 renal
# OVCAR-3 ovarian = test system: OVCAR-3 ovarian
# BT-549 breast = test system: BT-549 breast
# CCRF-CEM leukemia = test system: CCRF-CEM leukemia
# NCI-H226 lung = test system: NCI-H226 lung
# EKVX NSCLC = test system: EKVX NSCLC
# NCI-H460 lung = test system: NCI-H460 lung
# MALME-3M melanoma = test system: MALME-3M melanoma
# NCI-H522 lung = test system: NCI-H522 lung
# HOP-92 NSCLC = test system: HOP-92 NSCLC
# SF-295 CNS = test system: SF-295 CNS
# NCI/ADR-RES ovarian = test system: NCI/ADR-RES ovarian
# SNB-75 CNS = test system: SNB-75 CNS
# SR leukemia = test system: SR leukemia
compound,measurement,setting,value
O=C(Nc1ccc(Cl)cc1)c1cc2cc(F)ccc2cc1O,GI50,HL-60(TB) leukemia,1220 nM
same,TGI,HL-60(TB) leukemia,6780 nM
same,GI50,HCT-116 colon,963 nM
same,TGI,HCT-116 colon,6660 nM
same,GI50,OVCAR-8 ovarian,2930 nM
same,TGI,OVCAR-8 ovarian,> 100000 nM
same,GI50,SF-539 CNS,1260 nM
same,TGI,SF-539 CNS,14300 nM
same,GI50,RXF 393 renal,3000 nM
same,TGI,RXF 393 renal,16100 nM
same,GI50,SF-268 CNS,2460 nM
same,TGI,SF-268 CNS,> 100000 nM
same,GI50,HS 578T breast,3030 nM
same,TGI,HS 578T breast,> 100000 nM
same,GI50,MDA-MB-435,1960 nM
same,TGI,MDA-MB-435,8800 nM
same,GI50,T-47D breast,941 nM
same,TGI,T-47D breast,5360 nM
same,GI50,MDA-MB-231 breast,1550 nM
same,TGI,MDA-MB-231 breast,5290 nM
same,GI50,LOX IMVI melanoma,2110 nM
same,TGI,LOX IMVI melanoma,10700 nM
same,GI50,UO-31 renal,1080 nM
same,TGI,UO-31 renal,> 100000 nM
same,GI50,786-0 renal,2900 nM
same,TGI,786-0 renal,> 100000 nM
same,GI50,UACC-62 melanoma,622 nM
same,TGI,UACC-62 melanoma,23600 nM
same,GI50,SW-620 colon,2490 nM
same,TGI,SW-620 colon,> 100000 nM
same,GI50,K-562 leukemia,491 nM
same,TGI,K-562 leukemia,> 100000 nM
same,GI50,SK-MEL-2 melanoma,672 nM
same,TGI,SK-MEL-2 melanoma,2740 nM
same,GI50,HCC-2998 colon,3130 nM
same,TGI,HCC-2998 colon,> 100000 nM
same,GI50,TK-10 renal,2390 nM
same,TGI,TK-10 renal,58900 nM
same,GI50,HCT-15 colon,1780 nM
same,TGI,HCT-15 colon,> 100000 nM
same,GI50,SK-OV-3 ovarian,1080 nM
same,TGI,SK-OV-3 ovarian,5760 nM
same,GI50,A498 renal,553 nM
same,TGI,A498 renal,2740 nM
same,GI50,NCI-H23 lung,929 nM
same,TGI,NCI-H23 lung,7330 nM
same,GI50,SK-MEL-5 melanoma,417 nM
same,TGI,SK-MEL-5 melanoma,1520 nM
same,GI50,MCF7 breast,1540 nM
same,TGI,MCF7 breast,6510 nM
same,GI50,ACHN renal,1670 nM
same,TGI,ACHN renal,7070 nM
same,GI50,RPMI-8226 leukemia,591 nM
same,TGI,RPMI-8226 leukemia,7160 nM
same,GI50,OVCAR-5 ovarian,3280 nM
same,TGI,OVCAR-5 ovarian,> 100000 nM
same,GI50,HT29 colon,3670 nM
same,TGI,HT29 colon,40000 nM
same,GI50,PC-3 prostate,1940 nM
same,TGI,PC-3 prostate,> 100000 nM
same,GI50,DU-145 prostate,2180 nM
same,TGI,DU-145 prostate,> 100000 nM
same,GI50,OVCAR-4 ovarian,2560 nM
same,TGI,OVCAR-4 ovarian,8990 nM
same,GI50,SK-MEL-28 melanoma,1750 nM
same,TGI,SK-MEL-28 melanoma,> 100000 nM
same,GI50,M14 melanoma,2230 nM
same,TGI,M14 melanoma,> 100000 nM
same,GI50,U251 CNS,1100 nM
same,TGI,U251 CNS,6540 nM
same,GI50,SN12C renal,1780 nM
same,TGI,SN12C renal,> 100000 nM
same,GI50,MOLT-4 leukemia,3240 nM
same,TGI,MOLT-4 leukemia,16400 nM
same,GI50,KM12 colon,2740 nM
same,TGI,KM12 colon,> 100000 nM
same,GI50,SNB-19 CNS,2200 nM
same,TGI,SNB-19 CNS,> 100000 nM
same,GI50,UACC-257 melanoma,1340 nM
same,TGI,UACC-257 melanoma,5200 nM
same,GI50,COLO 205 colon,2350 nM
same,TGI,COLO 205 colon,6400 nM
same,GI50,A549 NSCLC,2500 nM
same,TGI,A549 NSCLC,> 100000 nM
same,GI50,IGROV1 ovarian,2280 nM
same,TGI,IGROV1 ovarian,> 100000 nM
same,GI50,HOP-62 NSCLC,2010 nM
same,TGI,HOP-62 NSCLC,7560 nM
same,GI50,CAKI-1 renal,838 nM
same,TGI,CAKI-1 renal,8960 nM
same,GI50,OVCAR-3 ovarian,1090 nM
same,TGI,OVCAR-3 ovarian,> 100000 nM
same,GI50,BT-549 breast,1350 nM
same,TGI,BT-549 breast,5120 nM
same,GI50,CCRF-CEM leukemia,3350 nM
same,TGI,CCRF-CEM leukemia,15600 nM
same,GI50,NCI-H226 lung,2500 nM
same,TGI,NCI-H226 lung,7990 nM
same,GI50,EKVX NSCLC,2620 nM
same,TGI,EKVX NSCLC,22300 nM
same,GI50,NCI-H460 lung,882 nM
same,TGI,NCI-H460 lung,> 100000 nM
same,GI50,MALME-3M melanoma,613 nM
same,TGI,MALME-3M melanoma,4110 nM
same,GI50,NCI-H522 lung,359 nM
same,TGI,NCI-H522 lung,3030 nM
same,GI50,HOP-92 NSCLC,288 nM
same,TGI,HOP-92 NSCLC,809 nM
same,GI50,SF-295 CNS,2470 nM
same,TGI,SF-295 CNS,6720 nM
same,GI50,NCI/ADR-RES ovarian,2500 nM
same,TGI,NCI/ADR-RES ovarian,8050 nM
COc1ccc(Cl)cc1NC(=O)c1c(NC(=O)C(F)(F)C(F)(F)F)sc2c1CCCCC2,GI50,HL-60(TB) leukemia,2130 nM
same,TGI,HL-60(TB) leukemia,6630 nM
same,GI50,HCT-116 colon,1300 nM
same,TGI,HCT-116 colon,5670 nM
same,GI50,OVCAR-8 ovarian,2020 nM
same,TGI,OVCAR-8 ovarian,> 100000 nM
same,GI50,RXF 393 renal,1730 nM
same,TGI,RXF 393 renal,5280 nM
same,GI50,SF-268 CNS,1090 nM
same,TGI,SF-268 CNS,> 100000 nM
same,GI50,HS 578T breast,1370 nM
same,TGI,HS 578T breast,7540 nM
same,GI50,SNB-75 CNS,1490 nM
same,TGI,SNB-75 CNS,5640 nM
same,GI50,MDA-MB-435,2520 nM
same,TGI,MDA-MB-435,> 100000 nM
same,GI50,T-47D breast,1260 nM
same,TGI,T-47D breast,5490 nM
same,GI50,LOX IMVI melanoma,2620 nM
same,TGI,LOX IMVI melanoma,> 100000 nM
same,GI50,UO-31 renal,1940 nM
same,TGI,UO-31 renal,5750 nM
same,GI50,UACC-62 melanoma,397 nM
same,TGI,UACC-62 melanoma,3860 nM
same,GI50,SW-620 colon,1930 nM
same,TGI,SW-620 colon,> 100000 nM
same,GI50,K-562 leukemia,663 nM
same,TGI,K-562 leukemia,> 100000 nM
same,GI50,SK-MEL-2 melanoma,1070 nM
same,TGI,SK-MEL-2 melanoma,5710 nM
same,GI50,HCC-2998 colon,1880 nM
same,TGI,HCC-2998 colon,> 100000 nM
same,GI50,SK-OV-3 ovarian,2180 nM
same,TGI,SK-OV-3 ovarian,6890 nM
same,GI50,A498 renal,312 nM
same,TGI,A498 renal,2060 nM
same,GI50,NCI-H23 lung,1540 nM
same,TGI,NCI-H23 lung,7380 nM
same,GI50,SK-MEL-5 melanoma,242 nM
same,TGI,SK-MEL-5 melanoma,585 nM
same,GI50,MCF7 breast,1680 nM
same,TGI,MCF7 breast,8680 nM
same,GI50,ACHN renal,1760 nM
same,TGI,ACHN renal,7110 nM
same,GI50,RPMI-8226 leukemia,523 nM
same,TGI,RPMI-8226 leukemia,3210 nM
same,GI50,OVCAR-5 ovarian,2610 nM
same,TGI,OVCAR-5 ovarian,> 100000 nM
same,GI50,HT29 colon,2480 nM
same,TGI,HT29 colon,> 100000 nM
same,GI50,PC-3 prostate,1470 nM
same,TGI,PC-3 prostate,11300 nM
same,GI50,DU-145 prostate,2720 nM
same,TGI,DU-145 prostate,> 100000 nM
same,GI50,OVCAR-4 ovarian,1570 nM
same,TGI,OVCAR-4 ovarian,5640 nM
same,GI50,SK-MEL-28 melanoma,1900 nM
same,TGI,SK-MEL-28 melanoma,> 100000 nM
same,GI50,M14 melanoma,2660 nM
same,TGI,M14 melanoma,> 100000 nM
same,GI50,U251 CNS,1890 nM
same,TGI,U251 CNS,> 100000 nM
same,GI50,SNB-19 CNS,1570 nM
same,TGI,SNB-19 CNS,> 100000 nM
same,GI50,COLO 205 colon,1300 nM
same,TGI,COLO 205 colon,2800 nM
same,GI50,A549 NSCLC,2540 nM
same,TGI,A549 NSCLC,> 100000 nM
same,GI50,SR leukemia,1230 nM
same,TGI,SR leukemia,> 100000 nM
same,GI50,IGROV1 ovarian,2810 nM
same,TGI,IGROV1 ovarian,> 100000 nM
same,GI50,HOP-62 NSCLC,2490 nM
same,TGI,HOP-62 NSCLC,7000 nM
same,GI50,CAKI-1 renal,1030 nM
same,TGI,CAKI-1 renal,4860 nM
same,GI50,BT-549 breast,2060 nM
same,TGI,BT-549 breast,7230 nM
same,GI50,CCRF-CEM leukemia,769 nM
same,TGI,CCRF-CEM leukemia,> 100000 nM
same,GI50,NCI-H226 lung,1910 nM
same,TGI,NCI-H226 lung,6050 nM
same,GI50,MALME-3M melanoma,1580 nM
same,TGI,MALME-3M melanoma,5630 nM
same,GI50,NCI-H522 lung,588 nM
same,TGI,NCI-H522 lung,7680 nM
same,GI50,HOP-92 NSCLC,263 nM
same,TGI,HOP-92 NSCLC,947 nM
same,GI50,SF-295 CNS,1030 nM
same,TGI,SF-295 CNS,3730 nM
same,GI50,NCI/ADR-RES ovarian,1800 nM
same,TGI,NCI/ADR-RES ovarian,8370 nM
